Where a name gives a salt, the structure may show the parent alone. Read-outs that look alike come from different tables or passages of the source.
How the values were obtained:
[1] = molecular target: T1, serotonin reuptake (SSRI) (Rattus norvegicus, UniProt P31652); test: Serotonin reuptake inhibition (SSRI), receptor binding studies; format: biochemical
T1 construct: from tissue
Excerpt: (§1) In-vitro evidence of interaction with the above-mentioned receptors can be provided, for example, as described in the following references: • 5-HT1A: Cossery J. M., Gozlan H., Spampinato U., Perdicakis C., Guillaumet G., Pichat L., Hamon M., 1987. The selective labeling of central 5-HT1A receptor binding sites by [3H]5-methoxy-3-(di-n-propylamino)chroman. Eur. J. Pharmacol. 140,143-55. • 5-HT2A: Klockow M., Greiner H. E., Haase A., Schmitges C.-J., Seyfried C. 1986. Studies on the receptor profile of bisoprolol. Arzneimittelforschung 36,197-200. • SSRI: Wong, D T, Bymaster, F P, Mayle, D A. Reid, L R, Krushinski, J H, Robertson, D W. LY248686, a new inhibitor of serotonin and norepinephrine uptake. Neuropsychopharmacology 8, 23-33, 1993
(§2) As illustrative of two compounds of the formula I, receptor binding constants determined by the test systems described at the outset are indicated below: […]

5-HT2A = 5-HT2A (UniProt P14842); test: 5-HT2A receptor binding
Excerpt: as §1, §2

5-HT1A = molecular target: T2, 5-HT1A (Rattus norvegicus, UniProt P19327); test: 5-HT1A receptor binding
T2 construct: from tissue
T2 sequence (P19327 1-422): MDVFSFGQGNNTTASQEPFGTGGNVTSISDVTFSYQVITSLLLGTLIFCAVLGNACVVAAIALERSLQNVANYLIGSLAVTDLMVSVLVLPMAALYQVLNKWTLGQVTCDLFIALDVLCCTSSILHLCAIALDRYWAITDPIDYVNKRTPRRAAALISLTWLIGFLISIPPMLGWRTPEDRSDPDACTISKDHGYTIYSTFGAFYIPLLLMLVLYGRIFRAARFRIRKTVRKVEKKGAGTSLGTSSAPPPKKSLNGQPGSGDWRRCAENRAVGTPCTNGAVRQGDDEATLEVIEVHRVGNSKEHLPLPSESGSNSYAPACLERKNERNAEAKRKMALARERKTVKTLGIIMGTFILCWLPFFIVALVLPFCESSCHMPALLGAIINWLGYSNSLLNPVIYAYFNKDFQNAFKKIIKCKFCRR
Excerpt: as §1, §2

T1 sequence (P31652 whole entry): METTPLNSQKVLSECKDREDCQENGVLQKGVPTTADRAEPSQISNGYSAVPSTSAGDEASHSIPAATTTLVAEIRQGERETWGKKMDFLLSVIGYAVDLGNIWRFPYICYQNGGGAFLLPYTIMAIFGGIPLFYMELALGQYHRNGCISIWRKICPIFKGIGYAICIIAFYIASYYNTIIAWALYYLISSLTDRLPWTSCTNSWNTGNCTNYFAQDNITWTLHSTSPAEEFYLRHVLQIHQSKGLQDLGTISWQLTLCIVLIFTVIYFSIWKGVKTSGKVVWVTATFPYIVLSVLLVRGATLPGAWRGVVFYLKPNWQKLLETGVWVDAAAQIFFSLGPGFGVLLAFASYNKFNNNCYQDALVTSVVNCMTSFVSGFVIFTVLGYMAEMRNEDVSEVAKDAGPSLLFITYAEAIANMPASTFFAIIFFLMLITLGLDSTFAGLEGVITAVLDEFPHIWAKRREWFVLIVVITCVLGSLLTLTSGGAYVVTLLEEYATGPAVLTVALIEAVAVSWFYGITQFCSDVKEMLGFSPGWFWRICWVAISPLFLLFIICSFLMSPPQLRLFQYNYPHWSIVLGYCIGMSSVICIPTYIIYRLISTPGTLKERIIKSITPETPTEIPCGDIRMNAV

SMILES: N#Cc1ccc2[nH]cc(CCN3CCN(c4cccc5nsnc45)CC3)c2c1 [b), 3-[2-(4-Benzo-1,2,5-thiadiazol-4-yl-piperazin-1-yl)ethyl]-1H-indole-5-carbonitrile]
- Ki [1]: 4.3 nM
- Ki (5-HT2A; read-out: receptor binding constant 5-HT2A; test system per Klockow et al. 1986): 7.3 nM
- Ki (5-HT1A; test system per Cossery et al. 1987, read-out: receptor binding constant 5-HT1A): 110 nM

SMILES: N#Cc1ccc2[nH]cc(CCN3CCN(c4cccc5c4OCCO5)CC3)c2c1 [a), 3-{2-[4-(2,3-Dihydrobenzo-1,4-dioxin-5-yl)piperazin-1-yl]ethyl}-1H-indole-5-carbonitrile]
- Ki ([1]; test system per Wong et al. 1993, read-out: receptor binding constant SSRI): 11 nM
- Ki (5-HT2A; test system per Klockow et al. 1986; read-out: receptor binding constant 5-HT2A): 11 nM
- Ki (5-HT1A): 17 nM

SMILES: N#Cc1ccc2[nH]cc(CCN3CCN(c4cccc5c4OCCO5)CC3)c2c1 (as salt: hydrochloride) [a), 3-{2-[4-(2,3-Dihydrobenzo-1,4-dioxin-5-yl)piperazin-1-yl]ethyl}-1H-indole-5-carbonitrile]
- melting point: 277.5 to 278.5 °C

From patent US20060122191A1, “N-(indolethyl-)cycloamine compounds” (priority 2002, published 2006)
